In brackets after ≈: the same amount, converted by molar mass. Read-outs that look alike come from different tables or passages of the source.
Experiments:
Recombinant human BACE1 = biological target: T1, Recombinant human BACE1 (Homo sapiens, UniProt P56817); experiment: Assay of BACE1 inhibitory activity: 384-well; type: biochemical; conditions: Assay format 384-well
T1 construct: purchased R&D Systems
Protocol: 5 μL of substrate peptide solution (Biotin-XSEVNLDAEFRHDSGC-Eu: X=ε-amino-n-capronic acid, Eu=Europium eryplate) was added to each well of 384-well plate (a black plate: Corning), and after addition of 0.1 μl of the compound of the present invention (DMSO solution) and 5 μl of Recombinant human BACE1 (R&D Systems), the reaction mixture was incubated at 25° C. for 2 hours. The substrate peptide was synthesized by reacting Cryptate TBPCOOH mono SMP (CIS bio international) with Biotin-XSEVNLDAEFRHDSGC (Peptide Institute, Inc.).
After the incubation for reaction, 10 μl of 8.0 μg/ml Streptavidin-XL665 (CIS bio International) dissolved in phosphate buffer (150 mmol/L K2HPO4-KH2PO4, pH 7.0, 0.008% Triton X-100, 0.8 mol/L KF) was added to each well and left stand at 25° C. for 30 minutes.

[1] = system: Aβ production in neuroblastoma SH-SY5Y cells (SH/APPwt); experiment: β-amyloid (Aβ) production inhibitory effect in cell: 384-well; type: cell-based; conditions: Homo sapiens, Assay format 384-well
Protocol: Neuroblastoma SH-SY5Y cells (SH/APPwt) with human wild-type β-APT excessively expressed therein were prepared at 4×10^5 cells/mL, and 50 μl portions thereof were inoculated into each well of a 384-well culture plate (Corning) added 0.5 μl of the test compound of the present invention (DMSO solution). The final DMSO concentration was 1%, and the amount of the cell culture was 50 μl. After the incubation was performed for 21 hours from the cell seeding, 5 μl of the culture supernatant was collected from each fraction. The amount of the Aβ in each fraction was measured.
The Aβ amount was measured as follows. 5 μl of a homogeneous time resolved fluoresrenee (HTRF) measurement reagent (Amyloid β1-40 peptide; CIS bio international) and 5 μl of the culture supernatant were put into a 384′well plate (a black plate: Corning) and mixed with each other, and then left standing overnight at 4° C. while the light was shielded. Then, the fluorescence intensity (620 nm and 665 nm) was measured with EnViston (Perkin Elmer life sciences).

CYP1A2 = biological target: T2, CYP1A2 (Homo sapiens, UniProt P05177); experiment: CYP inhibition test (CYP1A2); type: in vitro ADME; conditions: pooled human liver microsomes; 7-ethoxyresorufin O-deethylation
T2 construct: The commercially available pooled human liver microsomes are used as an enzyme resource; from tissue; host or cells: pooled human liver microsomes
T2 sequence (P05177 1-516): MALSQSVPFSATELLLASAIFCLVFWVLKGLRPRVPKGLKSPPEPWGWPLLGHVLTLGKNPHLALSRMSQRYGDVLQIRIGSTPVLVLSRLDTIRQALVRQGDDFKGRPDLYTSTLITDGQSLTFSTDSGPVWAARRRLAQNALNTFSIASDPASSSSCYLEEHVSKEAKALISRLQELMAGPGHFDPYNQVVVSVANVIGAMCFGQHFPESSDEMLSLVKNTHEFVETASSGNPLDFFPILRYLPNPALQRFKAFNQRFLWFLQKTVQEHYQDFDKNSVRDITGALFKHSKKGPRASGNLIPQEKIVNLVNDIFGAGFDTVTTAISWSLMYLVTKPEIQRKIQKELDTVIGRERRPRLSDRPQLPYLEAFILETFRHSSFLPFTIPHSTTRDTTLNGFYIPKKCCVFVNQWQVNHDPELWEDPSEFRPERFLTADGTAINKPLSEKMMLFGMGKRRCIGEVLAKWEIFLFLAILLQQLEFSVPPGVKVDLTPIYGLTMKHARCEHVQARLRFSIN
Source text: (§1) The CYP inhibition test is a test to assess the inhibitory effect of a compound of the present invention towards typical substrate metabolism reactions on CYP enzymes in human liver microsomes. The marker reactions on human main five CYP enzymes (CYP1A2, 2C9, 2C19, 2D6, and 3A4) are used as follows: 7-ethoxyresorufin O-deethylation (CYP1A2), tolbutamide methyl-hydroxylation (CYP2C9), mephenytoin 4′-hydroxylation (CYP2C19), dextromethorphan O-demethylation (CYP2D6), and terfenadine hydroxylation (CYP3A4). The commercially available pooled human liver microsomes are used as an enzyme resource.
(§2) The reaction conditions were as follows: substrate, 0.5 μmol/L ethoxyresorufin (CYP1A2), 100 μmol/L tolbutamide (CYP2C9), 50 μmol/L, S-mephenytoin (CYP2C19), 5 μmol/L dextromethorphan (CYP2D6), 1 μmol/L terfenadine (CYP3A4): reaction time, 15 minutes: reaction temperature, 37° C.; enzyme, pooled human liver microsomes 0.2 mg protein/mL; concentrations of the compound of the present invention, 1, 5, 10, 20 μmol/L (four points).
(§3) Five kinds of substrates, human liver microsomes, and a compound solution of the present invention in […] Hepes buffer were added to a 96-well plate at the composition as described above as a reaction solution. NADPH as a cofactor was added to this 96-well plate in order to initiate metabolism reactions. After the incubation at 37° C.for […], a methanol/acetonitrile=1/1 (v/v) solution was added to stop the reaction. After the centrifugation at 3000 rpm for 15 minutes, resorufin (CYP1A2 metabolite) in the supernatant was quantified by a fluorescent plate reader, and hydroxytolbutamide (CYP2C9 metabolite), 4′-hydroxymephenytoin (CYP2C19 metabolite), dextrorphan (CYP2D6 metabolite), and terfenadine alcohol metabolite (CYP3A4 metabolite) in the supernatant were quantified by LC/MS/MS.
(§4) The sample adding DMSO to a reaction system instead of compound of the present invention solution was adopted as a control (100%) because DMSO was used as a solvent to dissolve a compound of the present invention. Remaining activity (%) was calculated at each concentration of a compound of the present invention, and IC50 value was calculated by reverse presumption by a logistic model using a concentration and an inhibition rate.

CYP2C9 = biological target: T3, CYP2C9 (Homo sapiens, UniProt P11712); experiment: CYP inhibition test (CYP2C9); type: in vitro ADME; conditions: pooled human liver microsomes; tolbutamide methyl-hydroxylation
T3 construct: The commercially available pooled human liver microsomes are used as an enzyme resource; from tissue; host or cells: pooled human liver microsomes
T3 sequence (P11712 whole entry): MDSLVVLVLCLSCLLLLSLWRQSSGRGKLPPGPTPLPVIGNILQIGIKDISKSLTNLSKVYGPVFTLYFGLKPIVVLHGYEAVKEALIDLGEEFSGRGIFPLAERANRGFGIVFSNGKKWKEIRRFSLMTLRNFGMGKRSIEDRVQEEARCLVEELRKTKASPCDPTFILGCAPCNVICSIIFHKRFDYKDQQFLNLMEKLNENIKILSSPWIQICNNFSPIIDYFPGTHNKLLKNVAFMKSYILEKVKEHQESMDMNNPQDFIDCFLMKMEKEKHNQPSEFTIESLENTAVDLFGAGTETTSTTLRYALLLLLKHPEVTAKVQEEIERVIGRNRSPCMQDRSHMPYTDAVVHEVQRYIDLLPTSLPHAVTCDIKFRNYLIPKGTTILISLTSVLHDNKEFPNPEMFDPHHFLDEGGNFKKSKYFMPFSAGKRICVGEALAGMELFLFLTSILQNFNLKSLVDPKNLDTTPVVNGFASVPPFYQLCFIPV
Source text: as §1, §2, §3, §4

CYP2C19 = biological target: T4, CYP2C19 (Homo sapiens, UniProt P33261); experiment: CYP inhibition test (CYP2C19); type: in vitro ADME; conditions: pooled human liver microsomes; mephenytoin 4′-hydroxylation
T4 construct: The commercially available pooled human liver microsomes are used as an enzyme resource; from tissue; host or cells: pooled human liver microsomes
T4 sequence (P33261 whole entry): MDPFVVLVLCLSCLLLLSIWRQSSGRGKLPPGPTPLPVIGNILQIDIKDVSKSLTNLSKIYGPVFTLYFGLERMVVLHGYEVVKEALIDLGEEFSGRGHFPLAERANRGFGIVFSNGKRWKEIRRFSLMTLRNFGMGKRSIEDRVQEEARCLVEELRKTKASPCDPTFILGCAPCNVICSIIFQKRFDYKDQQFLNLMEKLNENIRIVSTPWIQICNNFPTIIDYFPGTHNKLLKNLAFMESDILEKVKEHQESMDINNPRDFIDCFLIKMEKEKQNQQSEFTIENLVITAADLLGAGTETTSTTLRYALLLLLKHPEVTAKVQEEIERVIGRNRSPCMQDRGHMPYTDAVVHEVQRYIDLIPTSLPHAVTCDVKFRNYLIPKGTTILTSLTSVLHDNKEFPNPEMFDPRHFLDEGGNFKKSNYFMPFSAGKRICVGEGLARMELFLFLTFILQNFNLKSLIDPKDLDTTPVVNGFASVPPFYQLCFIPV
Source text: as §1, §2, §3, §4

Solubility test = type: physicochemical; conditions: for solubility kinetic at 1 h: kinetic from dmso stock; for solubility kinetic at 16 h: solubility in JP 2nd fluid B, 1% DMSO, *2: shaken for 1 hour at room temperature
Protocol: A 10 mmol/L solution of the compound was prepared with DMSO, and 2 μL of the compound of the present invention solution was added, respectively, to 198 μL of JP 1st fluid (water was added to 2.0 g of sodium chloride and 7.0 ml, of hydrochloric acid to reach 1000 mL) and JP 2nd fluid (See Table 4). The mixture was left standing for 16 hours at 25° C. or shaken for 1 hour at ruom temperature, and the mixture was vacuum-filtered. The […] was ten or one hundred-fold diluted with metbanol/water=1/1 (v/v) or MeCN/MeOH/H2O(=1/1/2), and the compound concent ration in the filtrate was measured with LC/MS or solid phase extraction (SPE)/MS by the absolute calibration method.

[2] = biological target: T5, human ether-a-go-go related gene (hERG) channel (Homo sapiens, UniProt Q12809); experiment: hERG test; type: cell-based; conditions: % inhibition of IKr tail peak current at 3 uM; CHO cells expressing hERG
T5 construct: expressed in transfected cells; host or cells: CHO cells
T5 sequence (Q12809 whole entry): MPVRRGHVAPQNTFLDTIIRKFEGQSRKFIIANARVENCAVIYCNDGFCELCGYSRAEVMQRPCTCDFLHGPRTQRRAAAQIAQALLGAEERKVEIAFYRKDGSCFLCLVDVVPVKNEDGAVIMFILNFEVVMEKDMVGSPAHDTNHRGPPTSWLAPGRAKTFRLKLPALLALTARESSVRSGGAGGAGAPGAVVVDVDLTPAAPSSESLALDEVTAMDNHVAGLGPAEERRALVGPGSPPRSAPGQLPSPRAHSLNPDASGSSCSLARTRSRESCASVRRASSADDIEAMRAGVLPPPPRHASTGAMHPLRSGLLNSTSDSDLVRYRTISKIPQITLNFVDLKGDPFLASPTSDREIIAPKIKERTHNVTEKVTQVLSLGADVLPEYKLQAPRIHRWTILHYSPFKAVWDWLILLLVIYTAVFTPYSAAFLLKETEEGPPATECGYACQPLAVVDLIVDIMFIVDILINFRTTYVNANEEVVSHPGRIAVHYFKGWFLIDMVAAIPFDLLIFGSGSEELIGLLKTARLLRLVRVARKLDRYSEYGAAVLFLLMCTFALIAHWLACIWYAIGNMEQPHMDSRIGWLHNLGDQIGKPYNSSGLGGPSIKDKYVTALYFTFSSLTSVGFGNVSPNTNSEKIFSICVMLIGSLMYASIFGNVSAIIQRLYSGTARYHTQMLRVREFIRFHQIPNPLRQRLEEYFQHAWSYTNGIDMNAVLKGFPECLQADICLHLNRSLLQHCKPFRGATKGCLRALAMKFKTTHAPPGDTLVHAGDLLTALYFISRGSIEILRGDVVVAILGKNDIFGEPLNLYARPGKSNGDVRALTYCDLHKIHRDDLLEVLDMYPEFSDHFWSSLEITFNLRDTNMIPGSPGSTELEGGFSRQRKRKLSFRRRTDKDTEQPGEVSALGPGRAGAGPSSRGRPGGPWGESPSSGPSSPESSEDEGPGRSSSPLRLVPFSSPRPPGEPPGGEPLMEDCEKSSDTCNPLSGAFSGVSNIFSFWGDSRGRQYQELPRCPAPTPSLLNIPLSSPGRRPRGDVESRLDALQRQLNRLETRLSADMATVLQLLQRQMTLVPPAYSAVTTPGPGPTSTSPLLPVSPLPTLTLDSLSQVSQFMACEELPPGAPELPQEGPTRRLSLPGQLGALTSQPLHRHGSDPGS
Source text: For the purpose of assessing risk of an electrocardiogram QT interval prolongation, effects on delayed rectifier K+ current (IKr), which plays an important role in the ventricular repolarization process of the compound of the present invention, was studied using CHO cells expressing human ether-a-go-go related gene (hERG) channel.
A cell was retained at a membrane potential of […] by whole cell patch clamp method using an automated patch clamp system (QPatch:Sophion Bioscience A/S). After application of leak potential at −50 mV, IKr induced by depolarization pulse stimulation at +20 mV for 2 seconds and, further, repolarization pulse stimulation at −50 mV for 2 seconds was recorded.

CYP3A4 = biological target: T6, CYP3A4 (Homo sapiens, UniProt P08684); experiment: CYP inhibition test (CYP3A4); type: in vitro ADME; conditions: pooled human liver microsomes; terfenadine hydroxylation
T6 construct: The commercially available pooled human liver microsomes are used as an enzyme resource; from tissue; host or cells: pooled human liver microsomes
T6 sequence (P08684 whole entry): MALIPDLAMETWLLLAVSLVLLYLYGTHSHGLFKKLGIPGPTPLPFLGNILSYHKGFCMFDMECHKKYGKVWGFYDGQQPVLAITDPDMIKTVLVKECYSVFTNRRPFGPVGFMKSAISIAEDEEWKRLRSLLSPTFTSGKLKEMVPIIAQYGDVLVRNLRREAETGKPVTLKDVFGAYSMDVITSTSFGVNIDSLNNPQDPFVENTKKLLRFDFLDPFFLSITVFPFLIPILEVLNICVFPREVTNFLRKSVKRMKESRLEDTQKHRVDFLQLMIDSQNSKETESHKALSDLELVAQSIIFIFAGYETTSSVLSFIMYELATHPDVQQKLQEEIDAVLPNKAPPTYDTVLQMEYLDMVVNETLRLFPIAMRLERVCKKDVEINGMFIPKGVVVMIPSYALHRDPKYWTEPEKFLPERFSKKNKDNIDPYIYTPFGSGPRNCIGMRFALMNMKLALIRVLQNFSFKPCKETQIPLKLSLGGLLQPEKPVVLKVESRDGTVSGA
Source text: as §1, §2, §3, §4

Metabolic stability test = type: in vitro ADME; conditions: human liver microsomes, 37° C., 30 minutes, NADPH
Protocol: Using a commercially available pooled human liver microsomes, a compound of the present invention was reacted for a constant time, a remaining rate was calculated by comparing a reacted sample and an unreacted sample, thereby, a degree of metabolism in liver was assessed.
A reaction was performed (oxidative reaction) at 37° C. for 0 minute or 30 minutes in the presence of 1 mmol/L NADPH in 0.2 mL of a buffer (60 mmol/L Tris-HCl pH 7.4, 150 mmol/L potassium chloride, 10 mmol/L magnesium chloride) containing 0.5 mg protein/mL of human liver microsomes. After the reaction, 50 μL of the reaction solution was added to 100 μL of a methanol/acetonltrile=1/1 (v/v), mixed and centrifuged at 3000 rpm for 15 minutes. The compound of the present invention in the supernatant was quantified by LC/MS/MS or solid phase extraction (SPE)/MS, and a remaining amount of the compound of the present invention after the reaction area calculated, letting a compound amount at 0 minute reaction time to be 100%.

CYP2D6 = biological target: T7, CYP2D6 (Homo sapiens, UniProt P10635); experiment: CYP inhibition test (CYP2D6); type: in vitro ADME; conditions: pooled human liver microsomes; dextromethorphan O-demethylation
T7 construct: The commercially available pooled human liver microsomes are used as an enzyme resource; from tissue; host or cells: pooled human liver microsomes
T7 sequence (P10635 whole entry): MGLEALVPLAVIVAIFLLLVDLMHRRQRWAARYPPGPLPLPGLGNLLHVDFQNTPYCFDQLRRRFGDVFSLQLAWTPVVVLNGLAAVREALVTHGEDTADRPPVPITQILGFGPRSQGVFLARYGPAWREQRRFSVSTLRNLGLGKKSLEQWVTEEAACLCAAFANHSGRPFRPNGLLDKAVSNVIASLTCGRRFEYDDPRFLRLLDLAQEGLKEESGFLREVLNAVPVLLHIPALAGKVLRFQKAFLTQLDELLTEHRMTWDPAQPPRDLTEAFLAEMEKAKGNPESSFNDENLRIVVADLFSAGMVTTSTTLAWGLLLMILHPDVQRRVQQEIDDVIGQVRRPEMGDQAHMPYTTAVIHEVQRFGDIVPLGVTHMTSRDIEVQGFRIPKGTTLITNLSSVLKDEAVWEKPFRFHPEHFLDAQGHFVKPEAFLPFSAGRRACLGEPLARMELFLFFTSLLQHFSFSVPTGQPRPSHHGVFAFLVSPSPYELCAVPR
Source text: as §1, §2, §3, §4

[3] = JP 1st fluid, pH 1.2, simulated gastric fluid, read-out: JP1
[4] = JP 2nd fluid B, pH 6.8, aqueous buffer, read-out: JP2_μM

T1 sequence (P56817 46-501): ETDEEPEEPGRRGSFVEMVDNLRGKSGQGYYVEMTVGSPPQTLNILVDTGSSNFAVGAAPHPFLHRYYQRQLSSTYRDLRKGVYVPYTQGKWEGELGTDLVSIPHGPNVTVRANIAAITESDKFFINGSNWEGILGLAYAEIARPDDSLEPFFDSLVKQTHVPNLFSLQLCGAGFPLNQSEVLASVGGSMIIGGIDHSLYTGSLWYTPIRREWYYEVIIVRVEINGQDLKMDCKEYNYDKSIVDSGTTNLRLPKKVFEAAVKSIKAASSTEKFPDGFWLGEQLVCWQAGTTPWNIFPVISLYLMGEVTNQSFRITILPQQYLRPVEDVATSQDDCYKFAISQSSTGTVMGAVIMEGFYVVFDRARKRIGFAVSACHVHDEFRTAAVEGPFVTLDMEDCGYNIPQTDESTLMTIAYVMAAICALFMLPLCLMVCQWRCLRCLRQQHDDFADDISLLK

IC50 (Recombinant human BACE1) [µM]	IC50 [1] [µM]	IC50 (CYP1A2) [µM]	IC50 (CYP2C9) [µM]	IC50 (CYP2C19) [µM]	solubility kinetic at 1 h (Solubility test; [3]) [µM]	solubility kinetic at 16 h (Solubility test; read-out: JP2_μM) [µM]	IC50 (CYP3A4) [µM]	remaining % (Metabolic stability test) [%]	IC50 (CYP2D6) [µM]	solubility kinetic at 1 h (Solubility test; [4]) [µM]	SMILES	hERG_3 uM_% [2] [%]
0.0137	0.00068	≥ 20	≥ 20	≥ 20	> 50	>50					C[C@]1(c2cc(NC(=O)c3ccc(OCF)cn3)ccc2F)N=C(N)SCC12CC(F)(F)C2 [Compound I-58]	58.6
0.0355	0.018	≥ 20	≥ 10	≥ 20	> 50	>50	≥ 10				COCC(F)(F)[C@H]1OC(N)=N[C@](C)(c2cc(NC(=O)c3cnc(OC)cn3)ccc2F)[C@H]1F [Compound I-80]	8.9
0.0235	0.45	≥ 20	≥ 10	≥ 20	> 50	>50.0	≥ 10	105			COc1ccc(C(=O)Nc2ccc(F)c([C@@]3(C)N=C(N)O[C@H](C(F)(F)C4CC4)[C@@H]3F)c2)nn1 [Compound I-95]	
0.0245	0.00099	≥ 20	≥ 10	≥ 20	> 50	>50.0	≥ 20	89.4	≥ 10		Cc1cc(C#N)cnc1C(=O)Nc1ccc(F)c([C@@]2(C)N=C(N)O[C@H](C3(F)CC3)[C@@H]2F)c1 [Compound I-99]	
0.0234	0.0016	≥ 20	≥ 20	≥ 20	> 50	>50.0	≥ 20	78.1	≥ 20		C[C@H]1SC(N)=N[C@](C)(c2cccc(NC(=O)c3ccc(C#N)cn3)c2)[C@H]1F [Compound I-102]	
0.0305	0.00074	≥ 20	≥ 20	≥ 20	47.3 (≈ 18.8 µg/mL)		≥ 20	56.8	≥ 20	> 50	Cc1cc(C#N)cnc1C(=O)Nc1cccc([C@@]2(C)N=C(N)S[C@H](C)[C@@H]2F)c1 [Compound I-105]	
0.0235	0.00042	≥ 20	≥ 10	≥ 20	33.5 (≈ 13.6 µg/mL)		≥ 20	64.2	≥ 20	> 50	C[C@H]1SC(N)=N[C@](C)(c2cccc(NC(=O)c3ccc(OCF)cn3)c2)[C@H]1F [Compound I-107]	
0.0225	0.0011	≥ 20	≥ 10	≥ 20	42.1 (≈ 17.7 µg/mL)		≥ 20	81.1	≥ 10	> 50	C[C@H]1SC(N)=N[C@](C)(c2cc(NC(=O)c3ncc(C#N)cc3F)ccc2F)[C@H]1F [Compound I-110]	
0.164	0.04	≥ 20	≥ 20	≥ 20	> 50		≥ 20		≥ 20	48.6 (≈ 19.5 µg/mL)	C[C@@H]1SC(N)=N[C@](C)(c2cc(NC(=O)c3ccc(C#N)cn3)ccc2F)[C@@H]1F [Compound I-113]	
